Data: patent US10961202B2, “Bis-benzimidazole compounds and methods of using the same” (THE SCRIPPS RESEARCH INSTITUTE, priority 2017, dated 2021)

Columns and labels:
[1] = test system: r(CUG)12-MBNL1 complex; assay: Inhibition of the r(CUG)12-MBNL1 complex measured by TR-FRET; type: biochemical; conditions: 80 nM RNA, 60 nM MBNL1-His6
[2] = test system: MBNL1 exon 5 inclusion in DM1 myotubes; assay: Myotube splicing rescue assay (MBNL1 exon 5 inclusion); type: cell-based, human; conditions: 48-hour incubation

Compound	IC50 ([1]; Table L) [µM]	IC50 ([1]; Table M) [µM]	MBNL1 % splicing rescue at 1 μM [2] [%]	MBNL1 % splicing rescue at 10 μM [2] [%]	MBNL1 % splicing rescue at 5 μM [2] [%]
NCCCOc1ccc2nc(-c3ccc(-c4nc5ccc(OCCCN)cc5[nH]4)cc3)[nH]c2c1 [Compound 201, 3,3′-((1,4-phenylenebis(1H-benzo[d]imidazole-2,6-diyl))bis(oxy))bis(propan-1-amine)]	–	16.4	–	−13.2	–
CN(C)CCCOc1ccc2nc(-c3ccc(-c4nc5ccc(OCCCN(C)C)cc5[nH]4)c4c3OCO4)[nH]c2c1 [Compound 305]	–	7.6	–	58.8	–
CCOc1cc(-c2nc3cc(OCCCN(C)C)ccc3[nH]2)c(OCC)cc1-c1nc2cc(OCCCN(C)C)ccc2[nH]1 [Compound 314, (3-[[2-(4-[5-[3-(dimethylamino)propoxy]-1H-1,3-benzodiazol-2-yl]-2,5-diethoxyphenyl)-1H-1,3-benzodiazol-5-yl]oxy]propyl)dimethylamine]	–	19.8	–	22.5	–
CN(C)CCCOc1ccc2nc(-c3ccc(-c4nc5ccc(OCCCN(C)C)cc5[nH]4)c(C#N)c3)[nH]c2c1 [Compound 268, 2,5-bis(6-(3-(dimethylamino)propoxy)-1H-benzo[d]imidazol-2-yl)benzonitrile]	–	9.6	–	73.6	–
CN(C)CCCOc1ccc(-c2nc3cc(-c4ccc5[nH]c(-c6ccc(C(=O)NCCCn7cc(COCCOCCOCCOCCN(C)C(=O)c8ccc(-c9nc%10cc(-c%11ccc%12[nH]c(-c%13ccc(C(=O)NCCN(C)C)cc%13)nc%12c%11)ccc%10[nH]9)cc8)nn7)cc6)nc5c4)ccc3[nH]2)cc1 [Compound 459]	–	27.3	–	–	−2.6
CN(C)CCCOc1cc2[nH]c(-c3ccc(-c4nc5cc(F)c(OCCCN(C)C)cc5[nH]4)c(F)c3)nc2cc1F [Compound 301, (3-[[2-(4-[6-[3-(dimethylamino)propoxy]-5-fluoro-1H-1,3-benzodiazol-2-yl]-3-fluorophenyl)-5-fluoro-1H-1,3-benzodiazol-6-yl]oxy]propyl)dimethylamine]	–	5.3	–	19.4	–
CN(C)CCCOc1ccc(-c2nc3cc(-c4ccc5[nH]c(-c6ccc(O)cc6)nc5c4)ccc3[nH]2)cc1 [Compound 348]	–	16.8	75.3	75.3	–
CN(C)CCCOc1ccc2[nH]c(-c3ccc(-c4nc5cc(OCCCN(C)C)ccc5[nH]4)c4c3OCCO4)nc2c1 [Compound 316]	–	20.7	–	87.1	–
c1ccc(COc2ccc(-c3nc4cc(-c5ccc6[nH]c(-c7ccc(OCc8ccccn8)cc7)nc6c5)ccc4[nH]3)cc2)nc1 [Compound 352]	–	25.8	3.1	9.6	–
C[C@@H](NC(=O)CNCCCn1cc(CCCCN(C)CCNC(=O)c2ccc(-c3nc4cc(-c5ccc6[nH]c(-c7ccc(OCCCN(C)C)cc7)nc6c5)ccc4[nH]3)cc2)nn1)C(=O)N[C@H](C)C(=O)N[C@H](C)C(=O)N[C@H](C)C(=O)N(CCCn1cc(CCCCN(C)CCNC(=O)c2ccc(-c3nc4cc(-c5ccc6[nH]c(-c7ccc(OCCCN(C)C)cc7)nc6c5)ccc4[nH]3)cc2)nn1)CC(N)=O [Compound 461]	–	2.5	–	−35.5	–
CN(C)CCCOc1ccc(-c2nc3cc(-c4ccc5[nH]c(-c6ccc(C(=O)NCCCn7cc(COCCOCCN(C)C(=O)c8ccc(-c9nc%10cc(-c%11ccc%12[nH]c(-c%13ccc(C(=O)NCCN(C)C)cc%13)nc%12c%11)ccc%10[nH]9)cc8)nn7)cc6)nc5c4)ccc3[nH]2)cc1 [Compound 458]	–	20.5	–	–	−14.7
CN1CCC[C@H]1COc1ccc(-c2nc3cc(-c4ccc5[nH]c(-c6ccc(OC[C@@H]7CCCN7C)cc6)nc5c4)ccc3[nH]2)cc1 [Compound 356]	–	30.4	43.7	59.2	–
CN(C)CCCSc1ccc2nc(-c3ccc(-c4nc5ccc(SCCCN(C)C)cc5[nH]4)c4c3OCO4)[nH]c2c1 [Compound 306]	–	12.1	–	11.7	–
CN1CCN(Cc2ccc(-c3nc4cc(-c5ccc6[nH]c(-c7ccc(CN8CCN(C)CC8)cc7)nc6c5)ccc4[nH]3)cc2)CC1 [Compound 337]	–	31.9	57.2	73.3	–
CN(C)CCNC(=O)c1ccc(-c2nc3cc(-c4ccc5[nH]c(-c6ccc(SCCN(C)C)cc6)nc5c4)ccc3[nH]2)cc1 [Compound 384]	–	10.1	–	93.9	–

The next lines start with results.

IC50 ([1]; Table L) [µM]	IC50 ([1]; Table M) [µM]	Compound	MBNL1 % splicing rescue at 1 μM [2] [%]	MBNL1 % splicing rescue at 10 μM [2] [%]	MBNL1 % splicing rescue at 5 μM [2] [%]
9.5	–	O=C(NCCN1CCCCC1)c1ccc2nc(-c3ccc(-c4nc5ccc(C(=O)NCCN6CCNCC6)cc5[nH]4)cc3)[nH]c2c1 [Compound 126, N-(2-(piperazin-1-yl)ethyl)-2-(4-(6-((2-(piperidin-1-yl)ethyl)carbamoyl)-1H-benzo[d]imidazol-2-yl)phenyl)-1H-benzo[d]imidazole-6-carboxamide]	16.6	29.6	–
–	6.17	CN1CCC(CNC(=O)c2ccc(-c3nc4cc(-c5ccc6[nH]c(-c7ccc(C(=O)NCC8CCN(C)CC8)cc7)nc6c5)ccc4[nH]3)cc2)CC1 [Compound 340]	−3.4	−0.4	–
5.3	–	O=C(NCCN1CCCCC1)c1ccc(-c2nc3cc(-c4ccc5[nH]c(-c6ccc(C(=O)NCCN7CCCCC7)cc6)nc5c4)ccc3[nH]2)cc1 [Compound 116]	–	74.7	–
12.6	–	CC(C)N(CCNC(=O)c1ccc(-c2nc3cc(-c4ccc5[nH]c(-c6ccc(C(=O)NCCN(C(C)C)C(C)C)cc6)nc5c4)ccc3[nH]2)cc1)C(C)C [Compound 113]	7.9	45.3	–
–	22	O=C(NCCN1CCCCC1)c1ccc2nc(-c3ccc(-c4nc5ccc(C(=O)NCCN6CCCCC6)cc5[nH]4)c([N+](=O)[O-])c3)[nH]c2c1 [Compound 173, 2,2′-(2-nitro-1,4-phenylene)bis(N-(2-(piperidin-1-yl)ethyl)-1H-benzo[d]imidazole-6-carboxamide)]	1.5	23.1	–
–	4.32	O=C(NCCN1CCCCC1)c1ccc2nc(-c3ccc(-c4nc5ccc(C(=O)NCCN6CCCCC6)cc5[nH]4)c(F)c3)[nH]c2c1 [Compound 174]	5.2	1.9	–
–	3.03	O=C(NCCN1CCN(CCNC(=O)c2ccc3nc(-c4ccc(-c5nc6ccc(C(=O)NCCN7CCCCC7)cc6[nH]5)cc4)[nH]c3c2)CC1)NCCN1CCN(CCNC(=O)c2ccc3nc(-c4ccc(-c5nc6ccc(C(=O)NCCN7CCCCC7)cc6[nH]5)cc4)[nH]c3c2)CC1 [Compound 406, N,N′-((((carbonylbis(azanediyl))bis(ethane-2,1-diyl))bis(piperazine-4,1-diyl))bis(ethane-2,1-diyl))bis(2-(4-(6-((2-(piperidin-1-yl)ethyl)carbamoyl)-1H-benzo[d]imidazol-2-yl)phenyl)-1H-benzo[d]imidazole-6-carboxamide)]	9.4	54.3	–
–	13.5	c1cc(-c2nc3cc(-c4ccc5[nH]c(-c6ccc(OCCN7CCCC7)cc6)nc5c4)ccc3[nH]2)ccc1OCCN1CCCC1 [Compound 347]	78.9	98.1	–
